The source of these data is patent US20110028444A1, “PHARMACEUTICALLY ACCEPTABLE SALTS OF ANTI-INFECTION QUINOLONE COMPOUNDS” (priority 2008, published 2011).

Converted amounts (≈) assume the structure as drawn. Read-outs that look alike come from different tables or passages of the source.

In data set [1] the test system is Pseudomonas aeruginosa. Kind of data set: In-vitro antibacterial test, agar dilution MIC. As to conditions: for MIC: Pseudomonas aeruginosa, read-out: In-vitro MIC. The format is cell-based. (In agar dilution the substance is mixed into plates at graded concentrations.)
Excerpt: (§4) The test bacterial strains were the standard quality control test strains of Klebsiella pneumoniae strains (Strains No. CMCC 46114-8), Pseudomonas aeruginosa (Strains No. ATCC 27853), Escherichia coli (Strains No. ATCC25922), and Staphylococcus aureus cocci (Strains No. ATCC25925). Other bacteria included those isolated from sputum, throat swab or urine of patients with acute bacterial respiratory tract infection or urinary tract infection and identified by the hospitals.
(§5) HCl levofloxacin injection and NaCl ciprofloxacin lactate injection were diluted with sterilized distilled water to a concentration of 1920 μg/mL.
Data set [2] concerns Staphylococcus aureus. Nature of the data set: In-vitro antibacterial test, agar dilution MIC. The format is cell-based. Conditions: for MIC: Staphylococcus aureus, read-out: In-vitro MIC.
Excerpt: as §4, §5
The subject of data set [3] is Streptococcus pneumoniae. Kind of data set: In-vitro antibacterial test, agar dilution MIC. The format is cell-based. As to conditions: Streptococcus pneumoniae, read-out: In-vitro MIC. Here is the method:
(§1) Test method: the agar dilution method was used for the minimum inhibitory concentration (MIC) determination. The antibacterial chemicals were mixed with given amounts of agar in various concentrations and the mixtures were made into solid plates. Each plate had the antibacterial concentration two times higher than the next plate. Bacteria species were then added to the surface of the plates, cultured, and observed for their growth.
(§2) Other bacteria included those isolated from sputum, throat swab or urine of patients with acute bacterial respiratory tract infection or urinary tract infection and identified by the hospitals.
(§3) (S)-6-fluoro-1-methyl-4-oxo-7-(1-piperazinyl)-1H,4H-[1,3]thiazeto[3,2-a]quino line-3-carboxylic acid lactate and other test samples, equivalent to 96 mg of ulifloxacin, were dissolved in sterilized distilled water to make up 50 mL of each solution.

Data set [4] deals with Escherichia coli. Kind of data set: In-vitro antibacterial test, agar dilution MIC. The class given is cell-based. Conditions: for MIC: Escherichia coli, read-out: In-vitro MIC.
Excerpt: as §4, §5
The subject of data set [5] is Enterobacter cloacae. Kind of data set: In-vitro antibacterial test, agar dilution MIC. The class given is cell-based. As to conditions: agar dilution, read-out: In-vitro MIC.
Excerpt: as §4, §5
Data set [6] relates to Sprague-Drwlog rats. Conditions: intravenous injection, four weeks; cited from earlier work.
The test system of data set [7] is rats. Conditions: rat, in vivo; cited from earlier work.
Data set [8] concerns mice. Conditions: mouse, in vivo; cited from earlier work.
The nature of data set [9]: Solubility test: maximum solubility in water. The class given is physicochemical. Conditions: thermodynamic from solid. Here is the method:
Three lots of mesylates and three lots of lactates, respectively, were subjected to preliminary tests for maximum solubility in water. At ambient temperature (25° C.), 0.2 g of sample was dissolved in 1 mL of water. To the solution was added 0.1 g of the sample each time until the sample could no longer be dissolved. The amount of sample dissolved was the maximum solubility.

For data set [10], the system named is Enterococcus faecalis. Nature of the data set: In-vitro antibacterial test, agar dilution MIC. The class given is cell-based. As to conditions: read-out: In-vitro MIC.
Excerpt: as §4, §5
The test system of data set [11] is Klebsiella pneumoniae, Pseudomonas aeruginosa, Staphylococcus aureus, Escherichia coli, Enterococcus faecalis, Streptococcus pneumoniae, Enterobacter cloacae …. Kind of data set: In-vitro antibacterial tests, summary over the tested bacteria. As to conditions: for antibacterial activities compared with compounds 7 and 8: against the above four bacteria, concentrations calculated as equivalents to NM394; for antibacterial activity (in words): against the eight tested bacteria. The format is cell-based. As for the experimental part:
as §1, §2, §3

In data set [12] the test system is New Zealand rabbit ear vein and surrounding tissues. Nature of the data set: Vascular irritation tests. Conditions: vein injection once a day for 3 days, high and low doses. The format is in vivo, New Zealand rabbits. An excerpt: Sixteen New Zealand rabbits were divided into 4 groups: a control group and three treatment groups for compounds 4, 5, and 6, respectively; each group had 4 rabbits. The rabbits of the treatment groups were vein-injected on their left ears with high doses of the test samples and on their right ears with low doses of the test samples. The rabbits of the control group were rein-injected on their both left and right ears with sodium chloride solution. The injections continued for 3 days, once a day. Two rabbits from each group were anatomized after 24 hours of each injection.

For data set [13], the system named is SD rats. As to conditions: for NOAEL (no observed adverse effect level) / targeted organ of toxicity: SD rats; for NOAEL (no observed adverse effect level): 28 days continuous intravenous administration, calculated based on NM394; for targeted organ of toxicity: intravenous; for rats with crystals in renal tubules / rats with kidney protein casts / rats with mild cortical tubular dilatation: after 28 days.
Description: The dose without toxic reaction was thereby determined and the long term toxicity to SD rats was tested. One hundred forty SD rats were randomly divided into 7 groups depending on their body weight and sex; each group had 20 rats with 10 males and 10 females. […] The rats were administrated by intravenous injection, once a day for consecutive 4 weeks. The recovery was monitored for 2 weeks after treatment.
Drug preparation: the drugs were dissolved with a saline solution to the desired concentration before administration. Administration: intravenous injection. Delivery period: 28 days continuously. Observation and inspection: Observation and inspection projects, targets and time: including the general state of observation (7), hematologic (16), biochemical blood test (18), urine (10) and pathological examination.
General observation: the appearance of signs, behavior, glands, respiratory and stool, daily observation and timely recording, discovering dead or dying animals, timely anatomical examination, food intake, and body weight once weekly.
Blood tests: abdominal aortic blood for hematology testing, in the 16 testing indicators, leukocyte classification using whole blood smear, Wright stain staining; prothrombin time (PT) with a 0.109 mmol/L of citrate Citrus medica sodium (with blood volume ratio of 1:9) anticoagulant, 3000 r/min centrifugal 10 min, taking with BE Thromotimer plasma coagulation analyzer (Germany) determination; other indicators to EDTA anticoagulant, using SWELAB AC920EO automated hematology analyzer (Sweden).
Biochemical blood tests: blood sampling method same as above, blood serum obtained by 3000 r/min centrifugal 10 min. In the 21 indicators, the Na+, K+, Cl^− were determined using EasyLyte Plus Na/K/Cl analyzer (USA), the other indexes of blood were determined using a Hitachi 7020 automatic biochemical analyzer (Japan) determination.
Urine tests: 16 h urine collection, using [sequence] 100 urine analyzer.
Pathology: after anesthesia, the animal was killed by blood letting of the abdominal aorta. System anatomy and visual observation of changes in various organs were performed; and organ weights were determined. Tissue was fixed in 10% neutral formalin; plates were made by conventional paraffin producers, HE staining, and light microscopy.
Statistical analysis: In the different groups, the body weight, hematology, blood chemistry, urine measurements, organ weights, organ coefficient were calculated for the mean±standard deviation and t-test comparison between groups. Pathological abnormalities according to their incidence and severity were compared between groups.

Data set [14] relates to Klebsiella pneumoniae. Kind of data set: In-vitro antibacterial test, agar dilution MIC. The class given is cell-based.
Excerpt: as §4, §5
The subject of data set [15] is Vibrio cholerae. Nature of the data set: In-vitro antibacterial test, agar dilution MIC. The class given is cell-based.
Excerpt: as §4, §5
Where [16] appears, read: high dose group (60 mg/kg·bw), tissue microscopy.

As usually defined, the MIC is the lowest concentration found to suppress growth. Consider `CC1Sc2c(C(=O)O)c(=O)c3cc(F)c(N4CCNCC4)cc3n21` (racemic) [Ulifloxacin, 6-fluoro-1-methyl-4-oxo-7-(1-piperazinyl)-1H,4H-[1,3]thiazeto[3,2-a]quinoline-3-carboxylic acid, reference compound], for which the minimal inhibitory concentration (MIC) in [1] (agar dilution) was 0.5 µg/mL (≈ 1.43 µM); in data set [2] (agar dilution), 0.5 µg/mL (≈ 1.43 µM); in [3] (agar dilution), 0.031 µg/mL (≈ 0.0887 µM); in [4] (agar dilution) it was 0.08 µg/mL (≈ 0.229 µM); in [5] it was 1 µg/mL (≈ 2.86 µM). Also, in [6], the “NOAEL (no observed adverse effect level) dose” value is 3 mg/kg. In addition, the “toxic effects of intravenous injection” value in [7] is “convulsions, difficult breathing, injection site redness, swelling, and necrosis”; in data set [8], “losing weight, testicular atrophy, and visible pulmonary congestion”.
What is called solubility is the dissolved amount per volume that the medium holds. For `CC(O)C(=O)O.C[C@@H]1Sc2c(C(=O)O)c(=O)c3cc(F)c(N4CCNCC4)cc3n21` [Compound 4, (S)-6-fluoro-1-methyl-4-oxo-7-(1-piperazinyl)-1H,4H-[1,3]thiazeto[3,2-a]quinoline-3-carboxylic acid lactate], the solubility in [9] (maximum solubility in water, ambient temperature (25° C.), average of two tests, preliminary, read-out: Water Solubility) stood at 70 mg/mL. Further, the MIC in data set [1] is 0.25 µg/mL; in [2], 0.125 µg/mL; in data set [10] (agar dilution) it was 0.5 µg/mL; in data set [3], 0.02 µg/mL; in data set [4] it was 0.01 µg/mL; in data set [5] it was 0.5 µg/mL. In data set [11], the “antibacterial activities compared with compounds 7 and 8” value was “slightly stronger”. In data set [11], the “antibacterial activity (in words)” value is given as “relatively strong antibacterial activity”. In data set [12], the “irritation to ear vein and surrounding tissues” value (from here on “irritation”) is reported as “no irritation”. The “NOAEL (no observed adverse effect level)” value in [13] is on record as 30 mg/kg·bw. In [13], the “targeted organ of toxicity” value is listed as “the kidney”. Moreover, in data set [13] (setting [16]), the “rats with crystals in renal tubules” value was 3. Also, the “rats with kidney protein casts” value in data set [13] (setting [16]) is listed as “one”. Besides, the “rats with mild cortical tubular dilatation” value in data set [13] (setting [16]) came out at 3. Also, the “rats with mild interstitial inflammatory cell infiltration” value in [13] (setting [16]) turned out to be 1.
With `CS(=O)(=O)O.C[C@@H]1Sc2c(C(=O)O)c(=O)c3cc(F)c(N4CCNCC4)cc3n21` [Compound 5, (S)-6-fluoro-1-methyl-4-oxo-7-(1-piperazinyl)-1H,4H-[1,3]thiazeto[3,2-a]quinoline-3-carboxylic acid mesylate], in data set [9] (25 °C, water), the solubility was 490 mg/mL. Also, the minimum inhibitory concentration (MIC) in [1] amounted to 0.25 µg/mL; in [2], 0.25 µg/mL; in data set [10], 0.2 µg/mL; in data set [3] (agar dilution) it was 0.01 µg/mL; in [14] (Klebsiella pneumoniae) it was 0.02 µg/mL; in [5], 0.5 µg/mL. In addition, in data set [15] (Vibrio cholerae, read-out: In-vitro MIC), the MIC came out at 0.02 µg/mL. Further, the “antibacterial activities compared with compounds 7 and 8” value in data set [11] is listed as “slightly stronger”. Also, the “antibacterial activity (in words)” value in [11] is recorded as “relatively strong antibacterial activity”. In addition, in data set [12], the “irritation” value was “no irritation”. The “NOAEL (no observed adverse effect level)” value in data set [13] is on record as 30 mg/kg·bw. Further, the “targeted organ of toxicity” value in data set [13] is given as “the kidney”. Also, in data set [13] (setting [16]), the “rats with crystals in renal tubules” value was “two”. For the same compound, the “rats with kidney protein casts” value in [13] (setting [16]) is given as “one”. Besides, the “rats with mild cortical tubular dilatation” value in [13] (setting [16]) was “two”.
As for “(S)-6-fluoro-1-methyl-4-oxo-7-(1-piperazinyl)-1H,4H-[1,3]thiazeto[3,2-a]quinoline-3-carboxylic acid gluconate [Compound 6]”, the “In-vitro MIC” value in [1] (agar dilution) was found to be 0.25 µg/mL; in [2] (agar dilution) it was 0.25 µg/mL; in data set [4] (agar dilution), 0.01 µg/mL; in data set [14], 0.02 µg/mL; in data set [15] (agar dilution) it was 0.02 µg/mL. Besides, the “antibacterial activities compared with compounds 7 and 8” value in data set [11] is listed as “slightly stronger”. The “antibacterial activity (in words)” value in data set [11] is recorded as “relatively strong antibacterial activity”. In data set [12], the “irritation” value is recorded as “no irritation”.
